We go through 16 compounds from paper PMC8151276, “An Integrated Approach toward NanoBRET Tracers for Analysis of GPCR Ligand Engagement” (Molecules, 2021).

What all share (format): binding
In one assay the target is T1, MC5R (Homo sapiens, UniProt P33032).
T1 construct: purchased Promega (in-house HiBiT-GPCR construct library, NanoBRET)
As to the kind of experiment: NanoBRET screen HiBiT-MC5R in HEK293. How it is done: (§1) Each tracer candidate was screened across the entire library of HiBiT-GPCR constructs using NanoBRET as the detection modality. As depicted in Figure 4A, the specificity of interactions was evaluated through decrease in BRET due to competitive displacement of a bound tracer by excess parental compound. Each tracer was analyzed for binding to each HiBiT-GPCR fusion in the absence and in the presence of competing parental compound. Briefly, HEK293 cells were transfected with HiBiT-GPCR constructs diluted into promoterless DNA to reduce expression and maximize translocation to the cell surface. Each tracer candidate was then screened at concentrations of 1 μM and 0.1 μM across cells expressing these fusions. Cells were treated for 1.5 h with tracer either alone or in the presence of 20 μM competing parental compound (i.e., control). BRET was measured upon addition of purified LgBiT and subsequent complementation with HiBiT genetically fused to a GPCR. The specificity of interactions was assessed through a decrease in BRET signal due to competitive displacement of the bound tracer. To further gauge the robustness of these interactions, the fold response over the control (i.e., BRETtracer/BRETcontrol) was calculated. We chose a 1.5-fold response, which translates to ≥7-fold signal over noise as the minimal threshold required to score an interaction as positive.
(§2) HiBiT-GPCR DNA constructs were diluted in 10 mM Tris pH 8 to a final concentration of 0.01 μg/μL, arrayed in 96-well plates and stored at −20 °C. For transfection, HEK293 cells were suspended in Opti-MEM (without phenol red) supplemented with 2% fetal bovine serum (Seradigm) and 100 units/mL penicillin–streptomycin (Gibco) at a final concentration of 220,000 cells/mL and dispensed into white 96-well plates at 90 μL/well. Subsequent transfections and screens were carried using an Agilent Bravo Automated Liquid Handling Platform. First, the 96-well HiBiT DNA arrays were diluted 25-fold in Opti-MEM (without serum or phenol red) to a final concentration of 0.0004 μg/μL and 20 μL of the diluted DNAs were transferred into new 96-well plates. Next, promoterless carrier DNA (1 μg/μL) was diluted 25-fold (0.04 μg/μL) and then dispensed into the diluted arrays at 20 μL/well. Following brief mixing, Viafect transfection reagent (Promega) diluted 16-fold into Opti-MEM was dispensed into the plates at 40 μL/well. After mixing by pipetting, plates were incubated for 10 min on the pipetting station deck. The DNA-transfection reagent complexes were then added to plates containing cells. To facilitate the screen, 10 μL of DNA-transfection reagent complexes were added in duplicates to the top 4 and bottom 4 rows, resulting in two identical 48-well arrays per plate. Plates with transfected cells were incubated for 18–20 h at 37 °C/5% CO2. A screen of each tracer across the entire library using two different concentrations requires duplicate plates of transfected cells. Depending on the number of tracers being screened, transfections can be scaled up using the same ratios. The next day, for each tracer, four 20× screening solutions in tracer dilution buffer (Promega) were prepared: two duplicates at final concentration of 20 μM and two duplicates at a final concentration of 2 μM. […] The four resulting solutions were diluted 4-fold in Opti-MEM without serum or phenol red to generate 5× solutions (5 µM and 0.5 µM tracer +/− 100 μM competing compound). To screen the library, a BioTek MultiFlo FX liquid dispenser was used to dispense 22.5 µL of tracer solution to the top 4 rows and 22.5 µL tracer + competing compound solution to the 4 bottom rows. Plates were briefly mixed on an orbital shaker and incubated for 1.5 h at room temperature. […] Plates were briefly mixed on an orbital shaker and incubated for 15 min to allow complementation.

A further assay has as its target T2, MTNR1A (Homo sapiens, UniProt P48039).
T2 construct: purchased Promega (in-house HiBiT-GPCR construct library, NanoBRET)
In words: NanoBRET screen HiBiT-MTNR1A in HEK293. As to the method:
as §1, §2
(Bioluminescence resonance energy transfer reports proximity on the nanometre scale.)

Another assay deals with T3, HTR6 (Homo sapiens, UniProt P50406).
T3 construct: purchased Promega (in-house HiBiT-GPCR construct library, NanoBRET)
T3 sequence (P50406 whole entry): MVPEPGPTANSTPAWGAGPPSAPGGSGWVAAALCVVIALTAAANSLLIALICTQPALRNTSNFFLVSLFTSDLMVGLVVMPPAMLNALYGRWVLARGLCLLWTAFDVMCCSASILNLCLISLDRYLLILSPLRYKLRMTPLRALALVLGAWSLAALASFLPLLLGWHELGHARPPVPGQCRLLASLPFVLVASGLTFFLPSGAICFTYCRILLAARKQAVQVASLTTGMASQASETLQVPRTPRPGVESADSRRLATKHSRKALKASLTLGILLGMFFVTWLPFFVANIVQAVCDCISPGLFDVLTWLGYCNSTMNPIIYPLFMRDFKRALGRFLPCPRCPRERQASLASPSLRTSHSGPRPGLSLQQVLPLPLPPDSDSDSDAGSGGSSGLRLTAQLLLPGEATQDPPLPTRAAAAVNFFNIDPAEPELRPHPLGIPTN
As to the kind of experiment: NanoBRET screen HiBiT-HTR6 in HEK293. How it is done:
as §1, §2

T2 sequence (P48039 whole entry): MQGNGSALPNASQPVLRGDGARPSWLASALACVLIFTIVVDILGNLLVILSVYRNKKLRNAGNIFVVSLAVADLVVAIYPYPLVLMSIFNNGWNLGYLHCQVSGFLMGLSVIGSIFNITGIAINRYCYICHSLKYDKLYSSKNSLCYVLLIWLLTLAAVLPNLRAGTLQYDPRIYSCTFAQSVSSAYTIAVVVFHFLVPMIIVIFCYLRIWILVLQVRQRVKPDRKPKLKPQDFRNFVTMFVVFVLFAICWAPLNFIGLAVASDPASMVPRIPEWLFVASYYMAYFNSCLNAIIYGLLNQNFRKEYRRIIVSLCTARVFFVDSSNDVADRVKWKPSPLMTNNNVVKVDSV
T1 sequence (P33032 whole entry): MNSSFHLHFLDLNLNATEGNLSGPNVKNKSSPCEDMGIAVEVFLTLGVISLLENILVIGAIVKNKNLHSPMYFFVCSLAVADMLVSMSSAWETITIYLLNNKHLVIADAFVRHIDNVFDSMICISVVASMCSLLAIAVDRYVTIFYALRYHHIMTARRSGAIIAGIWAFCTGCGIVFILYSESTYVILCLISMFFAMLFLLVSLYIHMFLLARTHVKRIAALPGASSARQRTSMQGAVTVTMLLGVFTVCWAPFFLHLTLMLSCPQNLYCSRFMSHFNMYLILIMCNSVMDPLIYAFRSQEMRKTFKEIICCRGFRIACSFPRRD

As to `O=C(CCc1ccc2n1[B-](F)(F)[N+]1=C(c3ccc[nH]3)C=CC1=C2)NCc1ccc(C(=O)NCCOCCC(=O)N[C@@H]2CC[C@@]3(O)[C@H]4Cc5ccc(O)c6c5[C@@]3(CCN4CC3CC3)[C@H]2O6)cc1` [Naltrexone-3-NB590], the “NanoBRET Fold Response” value turned out to be 1.04 on MC5R (MC5R, tracer 1μM); 0.76 at MTNR1A (MTNR1A, tracer 0.1μM); 1.18 on MTNR1A (MTNR1A, tracer 1μM); 0.77 on HTR6 (HTR6, tracer 0.1μM); 0.95 at HTR6 (HTR6, tracer 1μM).
For the compound `CN1CCN(C2=Nc3cc(Cl)ccc3N(CC(=O)NCCOCCOCCOCCOCCNC(=O)CCc3ccc4n3[B-](F)(F)[N+]3=C(c5ccc[nH]5)C=CC3=C4)c3ccccc32)CC1` [Clozapine-c-2-NB590], the “NanoBRET Fold Response” value worked out at 1.01 at MC5R (MC5R, 0.1μM tracer); 1.06 at MC5R (MC5R, 1μM tracer); 0.97 at MTNR1A (MTNR1A, 0.1μM tracer); 1.07 on MTNR1A (MTNR1A, 1μM tracer).
Consider `O=C(CCOCCOCCOCCOCCNC(=O)CCc1ccc2n1[B-](F)(F)[N+]1=C(c3ccc[nH]3)C=CC1=C2)NCCCN1CCN(C2=Nc3cc(Cl)ccc3Nc3ccccc32)CC1` [Clozapine-a-2-NB590], for which the “NanoBRET Fold Response” value on MC5R (MC5R, 0.1μM tracer) is reported as 1.04; at MTNR1A (MTNR1A, 0.1μM tracer), 1.03; on MTNR1A (MTNR1A, 1μM tracer), 1.00; on HTR6 (HTR6, 0.1μM tracer) it was 1.49; at HTR6 (HTR6, 1μM tracer), 2.05.
`CCOC(=O)c1cc(C#N)c(N2CCC(C(=O)NS(=O)(=O)Cc3ccccc3/C=C/C(=O)NCCNC(=O)CCc3ccc4n3[B-](F)(F)[N+]3=C(c5ccc[nH]5)C=CC3=C4)CC2)nc1C` [AZD1283-1-NB590]: the “NanoBRET Fold Response” value was 0.99 at MC5R (MC5R, 1μM); 1.00 at MTNR1A (MTNR1A, 0.1μM); 1.00 on MTNR1A (MTNR1A, 1μM); 1.05 at HTR6 (HTR6, 0.1μM); 1.07 on HTR6 (HTR6, 1μM).
Regarding `COc1ccc2[nH]c(-c3ccc(CNC(=O)CCOCCOCCOCCOCCNC(=O)CCc4ccc5n4[B-](F)(F)[N+]4=C(c6ccc[nH]6)C=CC4=C5)cc3)c(CCNC(C)=O)c2n1` [AzomelatoninICO9-2-NB590], the “NanoBRET Fold Response” value is 0.94 at MC5R (0.1μM tracer); 0.97 at MC5R (1μM tracer); 1.06 on MTNR1A (0.1μM tracer); 1.42 on MTNR1A (1μM tracer); 0.97 on HTR6 (0.1μM tracer); 0.95 on HTR6 (1μM tracer).
With `CCCn1c(=O)c2[nH]c(-c3ccc(OCC(=O)NCCNC(=O)CCOCCNC(=O)c4ccc(CNC(=O)CCc5ccc6n5[B-](F)(F)[N+]5=C(c7ccc[nH]7)C=CC5=C6)cc4)cc3)nc2n(CCC)c1=O` [XAC-3-NB590], the “NanoBRET Fold Response” value on MC5R (MC5R, tracer 0.1μM) is on record as 1.02; at MC5R (MC5R, tracer 1μM) it was 0.98; on MTNR1A (MTNR1A, tracer 0.1μM), 1.02; on MTNR1A (MTNR1A, tracer 1μM) it was 1.01; on HTR6 (HTR6, tracer 0.1μM) it was 0.97; on HTR6 (HTR6, tracer 1μM), 0.93.
In the case of `COc1ccccc1N1CCN(CCCCN2C(=O)c3ccc(CNC(=O)CCOCCNC(=O)c4ccc(CNC(=O)CCc5ccc6n5[B-](F)(F)[N+]5=C(c7ccc[nH]7)C=CC5=C6)cc4)cc3C2=O)CC1` [NAN-190-3-NB590], the “NanoBRET Fold Response” value at MC5R (MC5R, tracer 0.1μM) was found to be 0.97; on MC5R (MC5R, tracer 1μM), 0.96; at MTNR1A (MTNR1A, tracer 0.1μM), 1.01; at MTNR1A (MTNR1A, tracer 1μM) it was 0.80; at HTR6 (HTR6, tracer 0.1μM) it was 0.94; on HTR6 (HTR6, tracer 1μM) it was 1.19.
As to `CN(CCC=C1c2ccccc2CCc2ccccc21)C(=O)CCOCCOCCOCCOCCNC(=O)CCc1ccc2n1[B-](F)(F)[N+]1=C(c3ccc[nH]3)C=CC1=C2` [Amitriptyline-e-2-NB590], the “NanoBRET Fold Response” value on HTR6 (tracer at 1μM) came to 1.01.
On to `O=C(CCc1ccc2n1[B-](F)(F)[N+]1=C(c3ccc[nH]3)C=CC1=C2)NCc1ccc(C(=O)NCCOCCOCCNCC(O)COc2cccc3ccccc23)cc1` (centres unmarked) [Propranolol-3-NB590], for which the “NanoBRET Fold Response” value on MC5R (MC5R, 0.1μM) was 1.00; at MC5R (MC5R, 1μM) it was 0.98; at MTNR1A (MTNR1A, 0.1μM), 0.98; on MTNR1A (MTNR1A, 1μM), 0.94; on HTR6 (HTR6, 0.1μM), 1.10; on HTR6 (HTR6, 1μM), 1.14.
As to `COc1ccc2c(n1)c(CCNC(C)=O)cn2CCNC(=O)CCc1ccc2n1[B-](F)(F)[N+]1=C(c3ccc[nH]3)C=CC1=C2` [Azamelatonin-1-NB590], the “NanoBRET Fold Response” value on MC5R (0.1μM tracer) is listed as 1.01; at MC5R (1μM tracer) it was 1.04; on MTNR1A (0.1μM tracer), 1.12; at MTNR1A (1μM tracer), 1.55; at HTR6 (0.1μM tracer), 0.87; at HTR6 (1μM tracer) it was 0.87.
With `O=C(CCOCCOCCOCCOCCNC(=O)CCc1ccc2n1[B-](F)(F)[N+]1=C(c3ccc[nH]3)C=CC1=C2)NCCCN1CCN(C2=Nc3ccccc3Oc3ccc(Cl)cc32)CC1` [Loxapine-a-2-NB590], the “NanoBRET Fold Response” value was determined as 1.04 on MC5R (MC5R, tracer 0.1μM); 0.92 at MTNR1A (MTNR1A, tracer 0.1μM); 1.12 on MTNR1A (MTNR1A, tracer 1μM); 1.04 at HTR6 (HTR6, tracer 0.1μM); 1.21 on HTR6 (HTR6, tracer 1μM).
For the compound `N#CN/C(=N\CCNC(=O)c1ccc(N)cc1)NCCCOc1cccc(CN2CCCCC2)c1` [Aminopotentidine (unmodified)], the “NanoBRET Fold Response” value on HTR6 (HTR6, other tracers/Aminopotentidine (unmodified), 0.1μM) was found to be 1.03; on HTR6 (HTR6, other tracers/Aminopotentidine (unmodified), 1μM), 1.38.
Consider `COc1ccccc1N1CCN(CCCCN2C(=O)c3ccc(CNC(=O)CCOCCOCCOCCOCCNC(=O)CCc4ccc5n4[B-](F)(F)[N+]4=C(c6ccc[nH]6)C=CC4=C5)cc3C2=O)CC1` [NAN-190-2-NB590], for which the “NanoBRET Fold Response” value on MC5R (MC5R, tracer 0.1μM) worked out at 0.98; at MC5R (MC5R, tracer 1μM), 1.01; on MTNR1A (MTNR1A, tracer 0.1μM), 0.99; at MTNR1A (MTNR1A, tracer 1μM) it was 0.97; at HTR6 (HTR6, tracer 0.1μM), 0.99; at HTR6 (HTR6, tracer 1μM), 1.04.
As to `CC(C)N(CC[C@H](c1ccccc1)c1cc(CCNC(=O)c2ccc(CNC(=O)CCc3ccc4n3[B-](F)(F)[N+]3=C(c5ccc[nH]5)C=CC3=C4)cc2)ccc1O)C(C)C` [Tolterodine-BZ-NB590], the “NanoBRET Fold Response” value at MC5R (MC5R, tracer 0.1μM) is 1.02; on MC5R (MC5R, tracer 1μM), 1.02; on MTNR1A (MTNR1A, tracer 0.1μM), 0.97; at MTNR1A (MTNR1A, tracer 1μM), 1.03; at HTR6 (HTR6, tracer 0.1μM), 0.96; at HTR6 (HTR6, tracer 1μM), 1.05.
With `CN1CCN(C2=Nc3cc(Cl)ccc3Nc3ccc(CNC(=O)CCOCCOCCOCCOCCNC(=O)CCc4ccc5n4[B-](F)(F)[N+]4=C(c6ccc[nH]6)C=CC4=C5)cc32)CC1` [Clozapine-b-2-NB590], the “NanoBRET Fold Response” value on MC5R (MC5R, 0.1μM tracer) amounted to 1.05; on MC5R (MC5R, 1μM tracer), 1.04; at MTNR1A (MTNR1A, 1μM tracer) it was 1.02.
`CN(C)CCC=C1c2ccccc2CCc2ccc(C(=O)NCCNC(=O)CCOCCOCCOCCOCCNC(=O)CCc3ccc4n3[B-](F)(F)[N+]3=C(c5ccc[nH]5)C=CC3=C4)cc21` [Amitriptyline-a-2-NB590]: the “NanoBRET Fold Response” value at HTR6 (tracer at 0.1μM) is reported as 0.98; on HTR6 (tracer at 1μM) it was 0.97.
